Measured values: paper PMC3681807 (Neuropharmacology, 2013)
“Also recorded” adds a separate entry of the source. Like-named read-outs stand apart in the source and are kept apart here.

What was measured:
Male Wistar rats [1] = assay: intravenous self-administration acquisition; format: in vivo, rat; settings: for infusion rate (M) / lever discrimination (M): 0.05 mg/kg/inf, FR5, 7 non-food-restricted sessions; for self-administered drug, Max / self-administered drug, Mean: 0.05 mg/kg/infusion i.v., within 10 training sessions; for level of drug intake from session to session: during acquisition
Male Wistar rats [2] = assay: fixed-ratio; format: in vivo, rat
Male Wistar rats [3] = assay: progressive-ratio dose-response self-administration testing; format: in vivo, rat; settings: for number of correct lever presses (M) / post-reinforcement pause duration (M) / time to reach breakpoint: PR; for number of correct lever presses (M) / post-reinforcement pause duration (M): 1st 3 hours of session
Male Wistar rats [4] = assay: locomotor activity by radiotelemetry after non-contingent s.c. administration; format: in vivo, rat; settings: for maximal increase of activity over baseline and/or vehicle: lower doses
Male Wistar rats [5] = assay: body temperature by radiotelemetry after non-contingent s.c. administration; format: in vivo, rat; settings: for effect on body temperature: 0–5.6 mg/kg s.c., MDPV at TA about 23 °C
Male Wistar rats [6] = assay: stereotypy after self-administration sessions; format: in vivo, rat; settings: FR5 dose-response testing
Male Wistar rats [7] = assay: stereotypy scores after non-contingent administration; format: in vivo, rat
[8] = system: dopamine transporter (DAT); settings: rat synaptosomes; ref Baumann et al., 2013; cited from earlier work
[9] = system: noradrenaline transporter (NET); settings: rat synaptosomes; ref Baumann et al., 2013; cited from earlier work
[10] = system: serotonin transporter (SERT); settings: rat synaptosomes; ref Baumann et al., 2013; cited from earlier work
[11] = system: dopamine transporter (DAT); settings: human transporters expressed by HEK 293 cells; ref Simmler et al., 2013; cited from earlier work
[12] = system: noradrenaline transporter (NET); settings: human transporters expressed by HEK 293 cells; ref Simmler et al., 2013; cited from earlier work
[13] = system: serotonin transporter (SERT); settings: human transporters expressed by HEK 293 cells; ref Simmler et al., 2013; cited from earlier work
DAT/SERT = settings: ref Simmler et al., 2013; cited from earlier work
monoamine release = settings: ref Baumann et al., 2013, Simmler et al.; cited from earlier work
Sprague-Dawley rats = settings: s.c.; ref Baumann et al., 2013; cited from earlier work
mice = settings: i.p.; ref Marusich et al., 2012; cited from earlier work
[14] = molecular target: noradrenergic transporter (Homo sapiens, UniProt P23975); assay: biochemical
serotonin transporter = serotonin transporter (Homo sapiens, UniProt P31645); assay: biochemical
[15] = system: alpha adrenergic receptors; settings: ref Roth et al., 2000, Rothman et al., 2001, 2003; cited from earlier work
[16] = FR5, per-infusion dose 0.01 mg/kg
[17] = FR5, per-infusion dose 0.05 mg/kg
[18] = FR5, per-infusion dose 0.10 mg/kg
[19] = FR5, per-infusion dose 0.50 mg/kg
[20] = 1.0 mg/kg s.c., MDPV 30- and 60-min bins, METH 30-, 90- and 120-min bins
[21] = 5.6 mg/kg s.c., summed deviations from mean of vehicle
[22] = 1.0 mg/kg s.c., MDPV 180-min bin, METH 30- to 120-min bins
[23] = FR5, per-infusion dose 0.25 mg/kg

Chain of noradrenergic transporter (P23975 whole entry): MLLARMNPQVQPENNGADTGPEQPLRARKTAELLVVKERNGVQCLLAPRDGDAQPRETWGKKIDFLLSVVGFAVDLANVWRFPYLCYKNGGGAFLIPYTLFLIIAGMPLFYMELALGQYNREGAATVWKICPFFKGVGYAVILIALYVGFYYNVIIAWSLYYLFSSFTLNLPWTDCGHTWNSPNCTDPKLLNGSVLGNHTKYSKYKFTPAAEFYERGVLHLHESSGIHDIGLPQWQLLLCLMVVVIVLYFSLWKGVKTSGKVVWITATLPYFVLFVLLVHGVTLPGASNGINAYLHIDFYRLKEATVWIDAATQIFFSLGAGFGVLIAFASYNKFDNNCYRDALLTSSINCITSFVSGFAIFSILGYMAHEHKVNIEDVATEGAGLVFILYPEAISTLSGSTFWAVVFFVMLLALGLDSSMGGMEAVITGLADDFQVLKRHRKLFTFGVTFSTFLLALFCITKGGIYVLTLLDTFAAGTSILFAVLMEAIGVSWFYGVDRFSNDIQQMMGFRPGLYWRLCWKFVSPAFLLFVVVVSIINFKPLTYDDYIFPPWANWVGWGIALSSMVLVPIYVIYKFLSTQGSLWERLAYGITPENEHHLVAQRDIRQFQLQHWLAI
Chain of serotonin transporter (P31645 whole entry): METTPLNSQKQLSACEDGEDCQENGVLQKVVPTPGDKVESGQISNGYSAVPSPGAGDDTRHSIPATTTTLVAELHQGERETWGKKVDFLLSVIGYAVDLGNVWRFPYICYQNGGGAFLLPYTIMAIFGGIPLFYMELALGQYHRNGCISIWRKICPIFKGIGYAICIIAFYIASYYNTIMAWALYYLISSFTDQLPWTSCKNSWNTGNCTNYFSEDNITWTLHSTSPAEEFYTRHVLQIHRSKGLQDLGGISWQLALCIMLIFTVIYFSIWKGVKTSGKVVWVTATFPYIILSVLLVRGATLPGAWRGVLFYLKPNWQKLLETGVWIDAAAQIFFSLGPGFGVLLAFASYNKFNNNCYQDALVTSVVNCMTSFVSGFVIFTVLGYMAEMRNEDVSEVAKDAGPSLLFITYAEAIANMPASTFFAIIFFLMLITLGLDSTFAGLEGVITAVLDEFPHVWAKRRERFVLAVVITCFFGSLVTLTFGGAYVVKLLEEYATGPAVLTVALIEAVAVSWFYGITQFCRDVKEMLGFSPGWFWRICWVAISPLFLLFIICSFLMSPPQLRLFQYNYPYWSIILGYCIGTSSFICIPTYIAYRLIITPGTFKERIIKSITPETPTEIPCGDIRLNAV

## CCCC(C(=O)c1ccc2c(c1)OCO2)N1CCCC1 (centres unmarked) [MDPV, 1-(1,3-benzodioxol-5-yl)-2-(1-pyrrolidinyl)-1-pentanone]
Male Wistar rats [1]
  infusion rate (M): 19 inf/hr
  lever discrimination (M): 86%
  self-administered drug, Max: 5.8 mg/kg/h
  self-administered drug, Mean: 0.9 mg/kg/h
  level of drug intake from session to session: ~ 1 mg/kg/hr
Male Wistar rats [1]; for most rats
  reward-lever selectivity: > 80%
Male Wistar rats [2]; [16]
  infusion rate (M): 35 infusions/hour
  post-reinforcement pause length (M): 48 s
Male Wistar rats [2]; [17]
  infusion rate (M): 13 infusions/hour
  post-reinforcement pause length (M): 107 s
Male Wistar rats [2]; [18]
  infusion rate (M): 8 infusions/hour
  post-reinforcement pause length (M): 223 s
Male Wistar rats [2]; [19]
  infusion rate (M): 4 infusions/hour
  post-reinforcement pause length (M): 572 s
Male Wistar rats [2]; more responding under lowest dose under fixed-ratio schedule
  potency on drug-reinforced behavior compared with METH: greater potency
Male Wistar rats [3]; per-infusion dose 0.01 mg/kg
  number of correct lever presses (M): 53
  post-reinforcement pause duration (M): 225 s
Male Wistar rats [3]; per-infusion dose 0.05 mg/kg
  number of correct lever presses (M): 610
  post-reinforcement pause duration (M): 110 s
Male Wistar rats [3]; per-infusion dose 0.10 mg/kg
  number of correct lever presses (M): 933
  post-reinforcement pause duration (M): 179 s
Male Wistar rats [3]; per-infusion dose 0.50 mg/kg
  number of correct lever presses (M): 286
  post-reinforcement pause duration (M): 820 s
Male Wistar rats [3]; per-infusion dose 0.5 mg/kg, all except 2 sessions
  time to reach breakpoint: ≤ 5 h
Male Wistar rats [3]; per-infusion doses at or below 0.1 mg/kg, all rats
  time to reach breakpoint: less than 3 hrs
Male Wistar rats [3]; more responding under optimal dose under a progressive-ratio schedule
  efficacy on drug-reinforced behavior compared with METH: greater efficacy
Male Wistar rats [4]; [20]
  locomotor activity compared with vehicle: higher
Male Wistar rats [4]; [21]
  AUC for activity, MDPV vs METH: significantly higher for MDPV than METH
Male Wistar rats [4]
  resolution of high-dose suppression of locomotion: 120–150 minutes post-injection
  duration of significant low-dose locomotor stimulation: 90 minutes post-injection
  maximal increase of activity over baseline and/or vehicle: about 4 fold
Male Wistar rats [5]
  effect on body temperature: modestly hyper-thermic; also recorded: negligible effect on temperature
Male Wistar rats [5]; [22]
  body temperature compared to pre-injection baseline: higher
Male Wistar rats [5]; additional data, not shown
  effect on rat body temperature at TA of 30°C: fails to significantly elevate rat body temperature
Male Wistar rats [5]; s.c., TA 23±1 °C, 180-min post-injection time bin
  body temperature after 1.0 mg/kg compared with 5.6 mg/kg: higher
Male Wistar rats [6]
  average cumulative dose when post-session stereotypy was not observed (M): 0.6 mg/kg per one hour session
  average cumulative dose when post-session stereotypy was observed (M): 1.4 mg/kg per one hour session
Male Wistar rats [7]; 0.5 mg/kg s.c.
  time for which stereotypy scores were higher than vehicle: 15 min
Male Wistar rats [7]; 0.5 mg/kg s.c., baseline immediately post-injection
  time for which stereotypy scores were higher than baseline: 15 min
Male Wistar rats [7]; 1.0 mg/kg s.c.
  time for which stereotypy scores were higher than vehicle: 60 min
Male Wistar rats [7]; 1.0 mg/kg s.c., baseline immediately post-injection
  time for which stereotypy scores were higher than baseline: 60 min
Male Wistar rats [7]; 3.2 mg/kg s.c.
  time for which stereotypy scores were higher than vehicle: entire session
Male Wistar rats [7]; 3.2 mg/kg s.c., baseline immediately post-injection
  time bins in which stereotypy scores were higher than baseline: 15 to 135 min
Male Wistar rats [7]; 5.6 mg/kg s.c.
  time for which stereotypy scores were higher than vehicle: entire session
[8]
  IC50: 4.1 nM
[9]
  IC50: 26 nM
[10]
  IC50: 3350 nM
[11]
  IC50: 31 nM
[12]
  IC50: 44 nM
[13]
  IC50: 9300 nM
DAT/SERT
  DAT/SERT inhibition ratio: > 100
Monoamine release
  activity as monoamine releaser: ineffective as a monoamine releaser
Sprague-Dawley rats
  doses at which stereotypies were reported: above 0.3 mg/kg
mice
  doses after which stereotypies are exhibited: 1 to 3 mg/kg
[14]
  Ki: 166 nM
Serotonin transporter
  Ki: 1540 nM

## CN[C@@H](C)Cc1ccccc1 [METH, d-methamphetamine, reference compound]
Male Wistar rats [1]
  infusion rate (M): 8 inf/hr
  lever discrimination (M): 83%
  self-administered drug, Max: 1.15 mg/kg/h
  self-administered drug, Mean: 0.4 mg/kg/h
  level of drug intake from session to session: ~ 0.5 mg/kg/hr
Male Wistar rats [2]; [16]
  infusion rate (M): 8 infusions/hour
  post-reinforcement pause length (M): 94 s
Male Wistar rats [2]; [17]
  infusion rate (M): 6 infusions/hour
  post-reinforcement pause length (M): 106 s
Male Wistar rats [2]; [18]
  infusion rate (M): 5 infusions/hour
  post-reinforcement pause length (M): 170 s
Male Wistar rats [2]; [23]
  infusion rate (M): 4 infusions/hour
  post-reinforcement pause length (M): 162 s
Male Wistar rats [3]; per-infusion dose 0.01 mg/kg
  number of correct lever presses (M): 60
  post-reinforcement pause duration (M): 276 s
Male Wistar rats [3]; per-infusion dose 0.05 mg/kg
  number of correct lever presses (M): 74
  post-reinforcement pause duration (M): 103 s
Male Wistar rats [3]; per-infusion dose 0.10 mg/kg
  number of correct lever presses (M): 250
  post-reinforcement pause duration (M): 113 s
Male Wistar rats [3]; per-infusion dose 0.25 mg/kg
  number of correct lever presses (M): 135
  post-reinforcement pause duration (M): 490 s
Male Wistar rats [4]; [20]
  locomotor activity compared with vehicle: higher
Male Wistar rats [4]; 5.6 mg/kg s.c., 60–150-min post-injection time bins
  locomotor activity compared with vehicle: lower
Male Wistar rats [4]
  resolution of high-dose suppression of locomotion: 150–180 minutes post-injection
  duration of significant low-dose locomotor stimulation: 120 minutes post-injection
  maximal increase of activity over baseline and/or vehicle: about 4 fold
Male Wistar rats [5]
  effect on body temperature: increased monotonically
Male Wistar rats [5]; [22]
  body temperature compared to pre-injection baseline: higher
Male Wistar rats [5]; 5.6 mg/kg s.c., 60- to 150-min time bins
  body temperature compared to vehicle: higher
Male Wistar rats [5]; 5.6 mg/kg s.c., 60- to 90-min post-injection time bins
  body temperature compared to pre-injection baseline: higher
Male Wistar rats [5]; [21]
  AUC for body temperature, METH vs MDPV: higher for METH than for MDPV
Male Wistar rats [5]; 20±2 °C TA
  average body temperature as a function of dose: did not vary as a function of drug condition
Male Wistar rats [5]; TA of 25±2 °C, doses in mg/kg s.c.
  average body temperature as a function of dose: 5.6 > 1.0 > vehicle
DAT/SERT
  DAT/SERT inhibition ratio: > 10
[15]
  binding affinity: low affinity binding

## COC(=O)[C@H]1[C@@H](OC(=O)c2ccccc2)C[C@@H]2CC[C@H]1N2C [cocaine]
DAT/SERT
  DAT/SERT inhibition ratio: 3.1
